Laboratory results reported in PubChem BioAssay AID602331 (Johns Hopkins Ion Channel Center, 2012).
Active and inactive are the calls of the source.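 The calls were made as follows: active = compound boosting capsaicin-evoked TRPV1 current more than 1.5 times over the capsaicin response; inactive = the rest.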

biological target: Transient receptor potential cation channel subfamily V member 1 (Homo sapiens) (UniProt Q8NER1); test: allosteric agonists potentiating TRPV1 currents, confirmation, QPatch automated patch clamp, HEK293 cells (AID 602331); settings: HEK293-TRPV1 QPatch current potentiation, +100 mV, capsaicin; at 10 µM; hits give high values
Sequence (Q8NER1 whole entry, looked up): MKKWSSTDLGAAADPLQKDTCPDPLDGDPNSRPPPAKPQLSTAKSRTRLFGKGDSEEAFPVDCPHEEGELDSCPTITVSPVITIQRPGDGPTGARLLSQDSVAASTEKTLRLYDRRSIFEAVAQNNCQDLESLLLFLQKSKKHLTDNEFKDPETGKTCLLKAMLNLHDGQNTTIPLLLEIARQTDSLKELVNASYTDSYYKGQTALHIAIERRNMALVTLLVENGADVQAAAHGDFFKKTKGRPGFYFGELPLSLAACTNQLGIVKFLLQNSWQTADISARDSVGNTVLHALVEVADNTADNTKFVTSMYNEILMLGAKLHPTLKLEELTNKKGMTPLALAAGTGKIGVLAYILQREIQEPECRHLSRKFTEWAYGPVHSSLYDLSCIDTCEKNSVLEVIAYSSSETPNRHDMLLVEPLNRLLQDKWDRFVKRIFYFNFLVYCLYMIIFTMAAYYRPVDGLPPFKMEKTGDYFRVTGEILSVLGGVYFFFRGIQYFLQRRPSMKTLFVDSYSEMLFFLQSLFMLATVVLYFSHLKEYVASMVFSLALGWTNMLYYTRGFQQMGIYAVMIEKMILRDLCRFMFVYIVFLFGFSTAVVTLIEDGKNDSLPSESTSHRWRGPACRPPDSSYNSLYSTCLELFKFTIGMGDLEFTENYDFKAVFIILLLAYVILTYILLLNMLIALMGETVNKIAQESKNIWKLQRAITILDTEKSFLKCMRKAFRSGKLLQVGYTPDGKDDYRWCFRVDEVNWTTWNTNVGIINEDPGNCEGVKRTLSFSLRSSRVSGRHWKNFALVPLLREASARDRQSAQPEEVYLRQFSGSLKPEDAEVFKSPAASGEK

fold potentiation	SMILES
0.827 (inactive)	O=C(CNc1cccc(S(=O)(=O)N2CCOCC2)c1)Nc1cccc(Br)c1
0.956 (inactive)	CC(=O)Nc1cccc(C(=O)OCC(=O)NCc2cc(C)c(O)c(C)c2)c1
3.23	O=C(COC(=O)c1ccc2c(c1)C(=O)N(Cc1ccncc1)C2=O)Nc1ccccc1[N+](=O)[O-]
1.63	CC1=C(C)/C(=N\OS(=O)(=O)c2ccc(C)cc2)C=CC1=O
1.08 (inactive)	Cc1csc2c(=O)sc(NC(=O)c3ccc(F)cc3Cl)nc12
0.906 (inactive)	O=c1c(/C=N/OCc2ccc(Cl)cc2Cl)c[nH]n1-c1cccc(Cl)n1
0.776 (inactive)	CC(C)C(=O)Nc1ccc(C(=O)CN2C(=O)NC3(CCOc4ccccc43)C2=O)cc1 (configuration not stated)
